Data published in patent US6803366B2, “Agent for improving learning or memory” (Toray Industries, Inc., priority 1999, dated 2004).
“Also recorded” adds a separate entry of the source.

What was measured:
[1] = test system: patients suffering from dementia; settings: cited from earlier work
ICR male mice [2] = assay: Evaluation of activity to improve learning and/or memory using Morris water maze; assay type: in vivo
Method: Evaluation of Activity to Improve Learning and/or Memory Using Morris Water Maze
In experiments, ICR male mice of 6 weeks old were used. Using Morris water maze as an experiment apparatus, ability of learning and memory of space was evaluated based on the latency until a mouse escapes to a platform arranged in a pool as an index. One trial was maximally 120 seconds, and 1 session was composed of three trials in which each mouse was made to swim in the pool from three different positions. Average time needed for the escape was calculated and evaluation was made based thereon. On the first day (the first session), no drug and nothing were administered. From the second session (Day 2), Compound 1, Compound 8 or a solvent was administered. Trial was repeated for 5 days (5 sessions).
The dose of Compound 1 was 10, 30 or 100 μg/kg, and the dose of Compound 8 was 100 μg/kg. Compound 1, Compound 8 or saline which was the solvent was subcutaneously administered 30 minutes before the first trial of each session. The data was subjected to analysis of variance and significance was evaluated according to Fisher's PLSD test. The cases where P<0.05 was evaluated as significant.

ICR male mice [3] = assay: Test of learning of Step-Down type passive avoidance (MK-801-induced learning disability and memory disorder); assay type: in vivo; settings: test 24 hours after training, FIG. 2
Method: In experiments, ICR male mice of 6 weeks old were used. The experiment apparatus comprised a plastic box sizing 25×25×30 cm (width×depth×height), a stainless steel grid for giving electrical shock, which was laid on the floor of the box, and a wooden platform sizing 4.5×4.5×3.0 cm (width×depth×height) placed on a corner on the floor grid.
Sixty minutes before the training trial, 100 or 300 μg/kg of Compound 1, or its solvent, saline, was subcutaneously administered. Thirty minutes later, 0.1 mg/kg of MK-801 which is a non-competitive antagonist of NMDA receptor, which is a compound that causes learning disability and/or memory disorder was intraperitoneally administered. Training trial was carried out by placing a mouse on the platform, and the time period until the mouse stepped down to the floor grid, that is, the Step-Down latency, was measured. Simultaneously with the attaching all of the feet of the mouse to the floor, an electrical shock of 0.6 mA was given for 2 seconds, thereby making the mouse to learn that an electrical shock would be given if the mouse would stepped down to the floor.
Test trials were carried out 24 hours after the training trials. Each mouse was again placed on the platform, and the Step-Down latency was measured for maximally 300 seconds.

COc1cc2c(cc1OC)C(=O)C(CC1CCN(Cc3ccccc3)CC1)C2 (stereo not shown) [Aricept]
improvement in patients suffering from dementia ([1]; dementia in light to medium degree): improvement is observed in about half cases

CN1CC[C@@]2(c3cccc(O)c3)Cc3nc4ccccc4cc3C[C@H]2C1 [Compound 1, (4aR, 12aR)-2-methyl-4a-(3-hydroxyphenyl)-1,2,3,4,4a,5,12,12a-octahydro-quinoline[2,3-g]isoquinoline]
time period (latency) required for escaping to the platform; ability of learning and memory of space (ICR male mice [2]; Compound 1 10, 30 or 100 μg/kg subcutaneously 30 minutes before first trial of each session, sessions 2-5, vs saline, FIG. 1): shortened dose-dependently from the second session; also recorded: ability of learning and memory of space was improved | Step-Down latency in test trials: reversal of the shortening by MK-801 (ICR male mice [3]; Compound 1 100 or 300 μg/kg s.c. 60 min before training, MK-801 0.1 mg/kg i.p. 30 min later, vs MK-801 alone): significantly reduced; also recorded: recovered

CN1CC[C@@]2(c3cccc(O)c3)Cc3nc4c(Br)cc(Br)cc4cc3C[C@@H]2C1 [Compound 8, (+)-7,9-dibromo-4a-(3-hydroxyphenyl)-2-methyl-1,2,3,4,4a,5,12,12a-octahydro-quinoline[2,3 g]isoquinoline]
latency required for escaping to the platform; ability of learning and memory of space (ICR male mice [2]; Compound 8 100 μg/kg subcutaneously 30 minutes before first trial of each session, vs saline, FIG. 3): shortened

C[C@]12N[C@H](Cc3ccccc31)c1ccccc12 [MK-801]
Step-Down latency in test trials (passive avoidance reaction) (ICR male mice [3]; MK-801 alone 0.1 mg/kg i.p., vs control group (solvent alone)): significantly shorter than that of the control group; also recorded: significantly suppressed

Nc1c2c(nc3ccccc13)CCCC2 [tacrine]
side effects ([1]; clinical use): hepatic toxicity and choline-related side effects | improvement of intellectual function in cases in which the drug is administered ([1]; dementia patients): improvement of intellectual function to a certain degree is observed in about half of the cases
